Numbers after ± are expanded uncertainties.
Settings: Crystal; DTA

Triple point temperature [K] | Structure (SMILES)
181.99 ± 0.5 | [N-]=[N+]=O [nitrous oxide]
154.3 ± 0.5 | CC(F)F [1,1-difluoroethane]
216.56 ± 0.5 | O=C=O [carbon dioxide]

Source: the NIST ThermoML archive (doi:10.1021/je700384e)
